Measurements reported in PubChem BioAssay (NCI).
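Five concentrations, 48 hours, 96-well plates. TGI marks complete inhibition of growth.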

Key:
Assay in all cases: DTP human tumour cell line panel, 48 h
A498 renal = tested on: A498 renal
LOX IMVI melanoma = tested on: LOX IMVI melanoma
HCT-15 colon = tested on: HCT-15 colon
KM20L2 colon = tested on: KM20L2 colon
UO-31 renal = tested on: UO-31 renal
IGROV1 ovarian = tested on: IGROV1 ovarian
SF-539 CNS = tested on: SF-539 CNS
CCRF-CEM leukemia = tested on: CCRF-CEM leukemia
DMS 273 small cell lung = tested on: DMS 273 small cell lung
SNB-75 CNS = tested on: SNB-75 CNS
SNB-19 CNS = tested on: SNB-19 CNS
SR leukemia = tested on: SR leukemia
OVCAR-3 ovarian = tested on: OVCAR-3 ovarian
SF-268 CNS = tested on: SF-268 CNS
NCI-H23 lung = tested on: NCI-H23 lung
NCI-H522 lung = tested on: NCI-H522 lung
OVCAR-4 ovarian = tested on: OVCAR-4 ovarian
SK-MEL-28 melanoma = tested on: SK-MEL-28 melanoma
COLO 205 colon = tested on: COLO 205 colon
NCI-H226 lung = tested on: NCI-H226 lung
NCI-H460 lung = tested on: NCI-H460 lung
SK-MEL-5 melanoma = tested on: SK-MEL-5 melanoma
SK-OV-3 ovarian = tested on: SK-OV-3 ovarian
CAKI-1 renal = tested on: CAKI-1 renal
HCC-2998 colon = tested on: HCC-2998 colon
RXF 393 renal = tested on: RXF 393 renal
KM12 colon = tested on: KM12 colon
HCT-116 colon = tested on: HCT-116 colon
OVCAR-5 ovarian = tested on: OVCAR-5 ovarian
XF 498 CNS = tested on: XF 498 CNS
MOLT-4 leukemia = tested on: MOLT-4 leukemia
EKVX NSCLC = tested on: EKVX NSCLC
HOP-92 NSCLC = tested on: HOP-92 NSCLC
TK-10 renal = tested on: TK-10 renal
M14 melanoma = tested on: M14 melanoma
SNB-78 CNS = tested on: SNB-78 CNS
MALME-3M melanoma = tested on: MALME-3M melanoma
UACC-257 melanoma = tested on: UACC-257 melanoma
RPMI-8226 leukemia = tested on: RPMI-8226 leukemia
SF-295 CNS = tested on: SF-295 CNS
LXFL 529 NSCLC = tested on: LXFL 529 NSCLC
A549 NSCLC = tested on: A549 NSCLC
RXF-631 renal = tested on: RXF-631 renal
K-562 leukemia = tested on: K-562 leukemia
UACC-62 melanoma = tested on: UACC-62 melanoma
ACHN renal = tested on: ACHN renal
SW-620 colon = tested on: SW-620 colon
U251 CNS = tested on: U251 CNS
HL-60(TB) leukemia = tested on: HL-60(TB) leukemia
DLD-1 colon = tested on: DLD-1 colon
786-0 renal = tested on: 786-0 renal
DMS 114 small cell lung = tested on: DMS 114 small cell lung
HT29 colon = tested on: HT29 colon
SN12C renal = tested on: SN12C renal
HOP-62 NSCLC = tested on: HOP-62 NSCLC
OVCAR-8 ovarian = tested on: OVCAR-8 ovarian
BT-549 breast = tested on: BT-549 breast
T-47D breast = tested on: T-47D breast
MDA-MB-231 breast = tested on: MDA-MB-231 breast
HS 578T breast = tested on: HS 578T breast
MCF7 breast = tested on: MCF7 breast
PC-3 prostate = tested on: PC-3 prostate
MDA-N = tested on: MDA-N
HOP-18 NSCLC = tested on: HOP-18 NSCLC
NCI/ADR-RES ovarian = tested on: NCI/ADR-RES ovarian
DU-145 prostate = tested on: DU-145 prostate
MDA-MB-435 = tested on: MDA-MB-435
SK-MEL-2 melanoma = tested on: SK-MEL-2 melanoma
M19-MEL melanoma = tested on: M19-MEL melanoma

## CCCCCCCCCCCCCCCC(=O)NC1CCc2cc(O)c(O)c(O)c2-c2ccc(SC)c(=O)cc21 (stereo not drawn)
A498 renal
  TGI: 39.5 µM
LOX IMVI melanoma
  TGI: 24.8 µM
HCT-15 colon
  TGI: 15.5 µM
KM20L2 colon
  TGI: 32.7 µM
UO-31 renal
  TGI: 22.6 µM
IGROV1 ovarian
  TGI: 25.3 µM
SF-539 CNS
  TGI: 9.2 µM
CCRF-CEM leukemia
  TGI: 46.2 µM
DMS 273 small cell lung
  TGI: 16.4 µM
SNB-75 CNS
  TGI: 9.13 µM
SNB-19 CNS
  TGI: 23.4 µM
SR leukemia
  TGI: > 31 µM
OVCAR-3 ovarian
  TGI: 16.8 µM
SF-268 CNS
  TGI: 23 µM
NCI-H23 lung
  TGI: 16.6 µM
NCI-H522 lung
  TGI: 14.6 µM
OVCAR-4 ovarian
  TGI: 28.9 µM
SK-MEL-28 melanoma
  TGI: 20.9 µM
COLO 205 colon
  TGI: 16.9 µM
NCI-H226 lung
  TGI: 27.4 µM
NCI-H460 lung
  TGI: 19.6 µM
SK-MEL-5 melanoma
  TGI: 16 µM
SK-OV-3 ovarian
  TGI: 29.5 µM
CAKI-1 renal
  TGI: 27.2 µM
HCC-2998 colon
  TGI: 20.9 µM
RXF 393 renal
  TGI: 7.66 µM
KM12 colon
  TGI: 20.3 µM
HCT-116 colon
  TGI: 17.2 µM
OVCAR-5 ovarian
  TGI: 26.8 µM
XF 498 CNS
  TGI: 29.6 µM
MOLT-4 leukemia
  TGI: > 71.8 µM
EKVX NSCLC
  TGI: 39.7 µM
HOP-92 NSCLC
  TGI: 8.28 µM
TK-10 renal
  TGI: 30.2 µM
M14 melanoma
  TGI: 25 µM
SNB-78 CNS
  TGI: 28.2 µM
MALME-3M melanoma
  TGI: 28.5 µM
UACC-257 melanoma
  TGI: 26.7 µM
RPMI-8226 leukemia
  TGI: > 100 µM
SF-295 CNS
  TGI: 13.7 µM
LXFL 529 NSCLC
  TGI: 8.04 µM
A549 NSCLC
  TGI: 15.5 µM
RXF-631 renal
  TGI: 28.1 µM
K-562 leukemia
  TGI: > 40.7 µM
UACC-62 melanoma
  TGI: 10.9 µM
ACHN renal
  TGI: 22.4 µM
SW-620 colon
  TGI: 19 µM
U251 CNS
  TGI: 12.6 µM
HL-60(TB) leukemia
  TGI: > 36.7 µM
DLD-1 colon
  TGI: 22.4 µM
786-0 renal
  TGI: 33.3 µM
DMS 114 small cell lung
  TGI: 6.37 µM
HT29 colon
  TGI: 27.8 µM
SN12C renal
  TGI: 35.8 µM
HOP-62 NSCLC
  TGI: 25.4 µM
OVCAR-8 ovarian
  TGI: 28.8 µM

## O=C1C(NCCO)=C(N2CC2)C(=O)C(NCCO)=C1N1CC1
BT-549 breast
  TGI: > 100 µM
A498 renal
  TGI: > 100 µM
LOX IMVI melanoma
  TGI: 41.3 µM
HCT-15 colon
  TGI: > 72.5 µM
KM20L2 colon
  TGI: > 100 µM
UO-31 renal
  TGI: > 88 µM
IGROV1 ovarian
  TGI: > 100 µM
SF-539 CNS
  TGI: 98 µM
CCRF-CEM leukemia
  TGI: 55.9 µM
T-47D breast
  TGI: > 100 µM
DMS 273 small cell lung
  TGI: > 40 µM
MDA-MB-231 breast
  TGI: > 100 µM
SNB-75 CNS
  TGI: > 100 µM
SNB-19 CNS
  TGI: > 100 µM
HS 578T breast
  TGI: > 100 µM
MCF7 breast
  TGI: > 100 µM
PC-3 prostate
  TGI: > 100 µM
SR leukemia
  TGI: 51.6 µM
OVCAR-3 ovarian
  TGI: > 75.8 µM
SF-268 CNS
  TGI: 76.8 µM
NCI-H23 lung
  TGI: 74.6 µM
NCI-H522 lung
  TGI: 70.6 µM
MDA-N
  TGI: > 100 µM
OVCAR-4 ovarian
  TGI: > 70.8 µM
SK-MEL-28 melanoma
  TGI: > 100 µM
COLO 205 colon
  TGI: > 90.3 µM
NCI-H226 lung
  TGI: > 94.4 µM
NCI-H460 lung
  TGI: > 66.2 µM
SK-MEL-5 melanoma
  TGI: > 85.5 µM
SK-OV-3 ovarian
  TGI: > 88 µM
CAKI-1 renal
  TGI: > 100 µM
HCC-2998 colon
  TGI: > 100 µM
RXF 393 renal
  TGI: > 100 µM
KM12 colon
  TGI: > 100 µM
HOP-18 NSCLC
  TGI: > 100 µM
HCT-116 colon
  TGI: 67.1 µM
OVCAR-5 ovarian
  TGI: > 100 µM
XF 498 CNS
  TGI: > 100 µM
MOLT-4 leukemia
  TGI: 58.5 µM
NCI/ADR-RES ovarian
  TGI: > 100 µM
EKVX NSCLC
  TGI: > 100 µM
HOP-92 NSCLC
  TGI: > 100 µM
TK-10 renal
  TGI: > 100 µM
M14 melanoma
  TGI: > 100 µM
SNB-78 CNS
  TGI: > 100 µM
MALME-3M melanoma
  TGI: > 100 µM
UACC-257 melanoma
  TGI: > 100 µM
RPMI-8226 leukemia
  TGI: > 84.8 µM
SF-295 CNS
  TGI: 64.6 µM
LXFL 529 NSCLC
  TGI: > 92.9 µM
A549 NSCLC
  TGI: > 100 µM
K-562 leukemia
  TGI: 84.7 µM
UACC-62 melanoma
  TGI: 99.5 µM
ACHN renal
  TGI: > 100 µM
SW-620 colon
  TGI: > 83.3 µM
U251 CNS
  TGI: > 71.6 µM
HL-60(TB) leukemia
  TGI: 57.6 µM
DU-145 prostate
  TGI: > 100 µM
MDA-MB-435
  TGI: > 100 µM
DLD-1 colon
  TGI: > 68.8 µM
786-0 renal
  TGI: > 60.9 µM
DMS 114 small cell lung
  TGI: > 50.9 µM
SK-MEL-2 melanoma
  TGI: > 73.9 µM
M19-MEL melanoma
  TGI: > 59.8 µM
HT29 colon
  TGI: > 81.8 µM
SN12C renal
  TGI: 56.7 µM
HOP-62 NSCLC
  TGI: 66.7 µM
OVCAR-8 ovarian
  TGI: > 85.7 µM

## COc1ncnc2c(NC3OC(CO)C(O)C3O)ncnc12 (stereo not drawn)
A498 renal
  TGI: 1.58 µM
LOX IMVI melanoma
  TGI: 0.619 µM
HCT-15 colon
  TGI: > 100 µM
KM20L2 colon
  TGI: > 100 µM
UO-31 renal
  TGI: > 21.9 µM
IGROV1 ovarian
  TGI: 3.82 µM
SF-539 CNS
  TGI: 1.33 µM
CCRF-CEM leukemia
  TGI: 1.57 µM
T-47D breast
  TGI: 7.22 µM
DMS 273 small cell lung
  TGI: 5.74 µM
MDA-MB-231 breast
  TGI: 1.54 µM
SNB-75 CNS
  TGI: 6.38 µM
SNB-19 CNS
  TGI: 74 µM
HS 578T breast
  TGI: 4.86 µM
MCF7 breast
  TGI: 0.443 µM
PC-3 prostate
  TGI: 12.6 µM
SR leukemia
  TGI: 0.276 µM
OVCAR-3 ovarian
  TGI: 11.1 µM
SF-268 CNS
  TGI: > 100 µM
NCI-H23 lung
  TGI: 13.5 µM
NCI-H522 lung
  TGI: > 100 µM
MDA-N
  TGI: 22.8 µM
OVCAR-4 ovarian
  TGI: 7.08 µM
SK-MEL-28 melanoma
  TGI: > 100 µM
COLO 205 colon
  TGI: 7.54 µM
NCI-H226 lung
  TGI: 3.82 µM
NCI-H460 lung
  TGI: > 83.5 µM
SK-MEL-5 melanoma
  TGI: > 39.8 µM
SK-OV-3 ovarian
  TGI: > 27.1 µM
CAKI-1 renal
  TGI: 6.3 µM
HCC-2998 colon
  TGI: > 35 µM
RXF 393 renal
  TGI: 12.7 µM
KM12 colon
  TGI: > 65.1 µM
HCT-116 colon
  TGI: 0.604 µM
OVCAR-5 ovarian
  TGI: > 35.6 µM
XF 498 CNS
  TGI: 7.84 µM
MOLT-4 leukemia
  TGI: 1.94 µM
NCI/ADR-RES ovarian
  TGI: 6.2 µM
EKVX NSCLC
  TGI: > 49 µM
HOP-92 NSCLC
  TGI: 0.527 µM
TK-10 renal
  TGI: 5.97 µM
M14 melanoma
  TGI: 21.9 µM
SNB-78 CNS
  TGI: 71.9 µM
MALME-3M melanoma
  TGI: > 100 µM
UACC-257 melanoma
  TGI: > 100 µM
RPMI-8226 leukemia
  TGI: 3.08 µM
SF-295 CNS
  TGI: 22.6 µM
LXFL 529 NSCLC
  TGI: 83.4 µM
RXF-631 renal
  TGI: 15.4 µM
UACC-62 melanoma
  TGI: 6.66 µM
ACHN renal
  TGI: > 53.7 µM
SW-620 colon
  TGI: 13.2 µM
U251 CNS
  TGI: > 100 µM
HL-60(TB) leukemia
  TGI: 0.418 µM
DU-145 prostate
  TGI: 10 µM
MDA-MB-435
  TGI: > 100 µM
DLD-1 colon
  TGI: 33.7 µM
786-0 renal
  TGI: 14 µM
DMS 114 small cell lung
  TGI: 1.09 µM
SK-MEL-2 melanoma
  TGI: > 100 µM
HT29 colon
  TGI: > 32 µM
SN12C renal
  TGI: 10.6 µM
HOP-62 NSCLC
  TGI: 18 µM
OVCAR-8 ovarian
  TGI: 5.29 µM
